Source: patent publication US20240270762A1, “PENICILLIN-BINDING PROTEIN INHIBITORS” (priority 2021, published 2024)
Converted amounts (≈) assume the structure as drawn.

Experiments:
A. baumannii ATCC 19606 = experiment: microbe, parasite or virus in culture; format: cell-based; conditions: Acinetobacter baumannii, ATCC19606, read-out: MIC, A. baumannii ATCC 19606
E. coli AG100 = experiment: microbe, parasite or virus in culture; format: cell-based; conditions: Escherichia coli, AG100, read-out: MIC E. coli AG100
P. aeruginosa ATCC 27853 = experiment: microbe, parasite or virus in culture; format: cell-based; conditions: Pseudomonas aeruginosa, ATCC27853, read-out: MIC P. aeruginosa ATCC 27853
E. coli 901C = experiment: microbe, parasite or virus in culture; format: cell-based; conditions: Escherichia coli, read-out: MIC E. coli 901C
K. pneumoniae UMM = experiment: microbe, parasite or virus in culture; format: cell-based; conditions: Klebsiella pneumoniae, read-out: MIC K. pneumoniae UMM
N. gonorrhoeae WHO Z = experiment: Liquid broth MIC in Fastidious broth; conditions: Neisseria gonorrhoeae, read-out: Minimum Inhibitory Concentration (MIC), N. gonorrhoeae WHO Z

## CC(C)S(=O)(=O)NC(C(=O)N[C@H]1Cc2cccc(C(=O)O)c2OB1O)c1ccc(P(=O)(O)O)cc1 (stereo partly drawn) [Example 60, (3R)-2-hydroxy-3-(2-((1-methylethyl)sulfonamido)-2-(4-phosphonophenyl)acetamido)-3,4-dihydro-2H-benzo[e][1,2]oxaborinine-8-carboxylic acid]
A. baumannii ATCC 19606
  MIC: > 128 µg/mL
E. coli AG100
  MIC: > 128 µg/mL
P. aeruginosa ATCC 27853
  MIC: > 128 µg/mL
E. coli 901C
  MIC: 32 to 64 µg/mL (≈ 60.8 to 122 µM)
K. pneumoniae UMM
  MIC: > 128 µg/mL
N. gonorrhoeae WHO Z
  MIC: 16 to 32 µg/mL (≈ 30.4 to 60.8 µM)

## O=C(O)c1cccc2c1OB(O)[C@@H](NC(=O)C(NS(=O)(=O)C1CC1)c1ccc(P(=O)(O)O)cc1)C2 (stereo partly drawn) [Example 61, (3R)-3-(2-(cyclopropanesulfonamido)-2-(4-phosphonophenyl)acetamido)-2-hydroxy-3,4-dihydro-2H-benzo[e][1,2]oxaborinine-8-carboxylic acid]
A. baumannii ATCC 19606
  MIC: > 128 µg/mL
E. coli AG100
  MIC: > 128 µg/mL
P. aeruginosa ATCC 27853
  MIC: > 128 µg/mL
E. coli 901C
  MIC: 32 to 64 µg/mL (≈ 61 to 122 µM)
K. pneumoniae UMM
  MIC: > 128 µg/mL
N. gonorrhoeae WHO Z
  MIC: 16 to 32 µg/mL (≈ 30.5 to 61 µM)

## O=C1CC[C@@H](C(=O)NC(C(=O)N[C@H]2Cc3cccc(C(=O)O)c3OB2O)c2ccc(P(=O)(O)O)cc2)N1 (stereo partly drawn) [Example 64, (3R)-2-hydroxy-3-(2-((S)-5-oxopyrrolidine-2-carboxamido)-2-(4-phosphonophenyl)acetamido)-3,4-dihydro-2H-benzo[e][1,2]oxaborinine-8-carboxylic acid]
A. baumannii ATCC 19606
  MIC: > 128 µg/mL
E. coli AG100
  MIC: > 128 µg/mL
P. aeruginosa ATCC 27853
  MIC: > 128 µg/mL
E. coli 901C
  MIC: 8 to 16 µg/mL (≈ 15.1 to 30.1 µM)
K. pneumoniae UMM
  MIC: > 128 µg/mL
N. gonorrhoeae WHO Z
  MIC: 4 to 8 µg/mL (≈ 7.53 to 15.1 µM)

## CC(=O)N1CCC[C@H]1C(=O)NC(C(=O)N[C@H]1Cc2cccc(C(=O)O)c2OB1O)c1ccc(P(=O)(O)O)cc1 (stereo partly drawn) [Example 65, (3R)-3-(2-((S)-1-acetylpyrrolidine-2-carboxamido)-2-(4-phosphonophenyl)acetamido)-2-hydroxy-3,4-dihydro-2H-benzo[e][1,2]oxaborinine-8-carboxylic acid]
A. baumannii ATCC 19606
  MIC: > 128 µg/mL
E. coli AG100
  MIC: > 128 µg/mL
P. aeruginosa ATCC 27853
  MIC: > 128 µg/mL
E. coli 901C
  MIC: 32 to 64 µg/mL (≈ 57.2 to 114 µM)
K. pneumoniae UMM
  MIC: > 128 µg/mL
N. gonorrhoeae WHO Z
  MIC: 16 to 32 µg/mL (≈ 28.6 to 57.2 µM)

## CN1CCC[C@H]1C(=O)NC(C(=O)N[C@H]1Cc2cccc(C(=O)O)c2OB1O)c1ccc(P(=O)(O)O)cc1 (stereo partly drawn) [Example 66]
A. baumannii ATCC 19606
  MIC: > 128 µg/mL
E. coli AG100
  MIC: > 128 µg/mL
P. aeruginosa ATCC 27853
  MIC: > 128 µg/mL
E. coli 901C
  MIC: 32 to 64 µg/mL (≈ 60.2 to 120 µM)
K. pneumoniae UMM
  MIC: > 128 µg/mL
N. gonorrhoeae WHO Z
  MIC: 16 to 32 µg/mL (≈ 30.1 to 60.2 µM)

## O=C(O)c1cccc2c1OB(O)[C@@H](NC(=O)C(NC(=O)C(F)(F)F)c1ccc(P(=O)(O)O)cc1)C2 (stereo partly drawn) [Example 172, (3R)-2-hydroxy-3-(2-(4-phosphonophenyl)-2-(2,2,2-trifluoroacetamido)acetamido)-3,4-dihydro-2H-benzo[e][1,2]oxaborinine-8-carboxylic acid]
A. baumannii ATCC 19606
  MIC: > 128 µg/mL
E. coli AG100
  MIC: > 128 µg/mL
P. aeruginosa ATCC 27853
  MIC: > 128 µg/mL
E. coli 901C
  MIC: 32 to 64 µg/mL (≈ 62 to 124 µM)
K. pneumoniae UMM
  MIC: > 128 µg/mL
N. gonorrhoeae WHO Z
  MIC: 16 to 32 µg/mL (≈ 31 to 62 µM)

## O=C(O)c1cccc2c1OB(O)[C@@H](NC(=O)[C@H](NC(=O)[C@@H]1CCCN1)c1ccc(P(=O)(O)O)cc1)C2 [Example 173, (R)-2-hydroxy-3-((R)-2-(4-phosphonophenyl)-2-((S)-pyrrolidine-2-carboxamido)acetamido)-3,4-dihydro-2H-benzo[e][1,2]oxaborinine-8-carboxylic acid]
A. baumannii ATCC 19606
  MIC: > 128 µg/mL
E. coli AG100
  MIC: > 128 µg/mL
P. aeruginosa ATCC 27853
  MIC: > 128 µg/mL
E. coli 901C
  MIC: 32 to 64 µg/mL (≈ 61.9 to 124 µM)
K. pneumoniae UMM
  MIC: 32 to 64 µg/mL (≈ 61.9 to 124 µM)
N. gonorrhoeae WHO Z
  MIC: 16 to 32 µg/mL (≈ 30.9 to 61.9 µM)

## O=C(O)c1cccc2c1OB(O)[C@@H](NC(=O)C(NC(=O)c1ccc[nH]c1=O)c1ccc(P(=O)(O)O)cc1)C2 (stereo partly drawn) [Example 174, (3R)-2-hydroxy-3-(2-(2-oxo-1,2-dihydropyridine-3-carboxamido)-2-(4-phosphonophenyl)acetamido)-3,4-dihydro-2H-benzo[e][1,2]oxaborinine-8-carboxylic acid]
A. baumannii ATCC 19606
  MIC: > 128 µg/mL
E. coli AG100
  MIC: > 128 µg/mL
P. aeruginosa ATCC 27853
  MIC: > 128 µg/mL
E. coli 901C
  MIC: 8 to 16 µg/mL (≈ 14.8 to 29.6 µM)
K. pneumoniae UMM
  MIC: > 128 µg/mL
N. gonorrhoeae WHO Z
  MIC: 16 to 32 µg/mL (≈ 29.6 to 59.1 µM)
